Results on 11 compounds are retold here after ChEMBL document CHEMBL1157522 (Bioorg Med Chem Lett, 2008).

The target of one test is Coagulation factor X (Homo sapiens, UniProt P00742). The test can be described thus: Inhibition of human factor 10a.
The next test deals with Trypsin (Homo sapiens) (UniProt P07477+P07478+P35030). The experiment in a line: Inhibition of human trypsin. It is filed as protein assay.
Test [1] deals with Coagulation factor IX (Homo sapiens) (UniProt P00740). The test can be described thus: Inhibition of human factor 9a.
The target of test [2] is T1, Coagulation factor VII (Homo sapiens) (UniProt P08709).
T1 sequence (whole entry): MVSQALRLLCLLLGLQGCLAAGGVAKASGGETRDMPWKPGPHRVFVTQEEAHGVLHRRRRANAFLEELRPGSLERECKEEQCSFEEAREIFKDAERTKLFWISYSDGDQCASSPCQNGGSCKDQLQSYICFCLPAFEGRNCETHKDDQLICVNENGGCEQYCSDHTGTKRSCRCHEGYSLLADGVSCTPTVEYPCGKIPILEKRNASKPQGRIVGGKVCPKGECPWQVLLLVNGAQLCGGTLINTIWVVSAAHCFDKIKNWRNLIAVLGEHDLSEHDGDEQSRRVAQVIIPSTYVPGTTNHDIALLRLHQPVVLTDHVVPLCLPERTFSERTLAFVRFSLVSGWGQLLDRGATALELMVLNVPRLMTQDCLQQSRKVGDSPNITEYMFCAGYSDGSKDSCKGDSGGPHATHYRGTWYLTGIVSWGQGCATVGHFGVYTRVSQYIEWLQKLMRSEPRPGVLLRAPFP
The experiment in a line: Inhibition of human factor 7a.

Test [3] addresses Plasminogen (Homo sapiens) (UniProt P00747). The experiment in a line: Inhibition of human plasmin.
The species named for the next test is Homo sapiens. The experiment in a line: Inhibition of human chymotrypsin.
In test [4] the target is Tissue-type plasminogen activator (Homo sapiens) (UniProt P00750). The experiment in a line: Inhibition of human tPA.
For test [5], the target named is Plasma kallikrein (Homo sapiens) (UniProt P03952). The test can be described thus: Inhibition of human plasma kallikrein. It is filed as cell-free.
Test [6] deals with Vitamin K-dependent protein C (Homo sapiens) (UniProt P04070). The test can be described thus: Inhibition of human activated protein C.

pKi: −log10 of the molar value. Activity calls are given as the source filed them. No cut-off for these calls is given here.

Chain of Coagulation factor IX (Homo sapiens) (P00740 47-191 limits assumed): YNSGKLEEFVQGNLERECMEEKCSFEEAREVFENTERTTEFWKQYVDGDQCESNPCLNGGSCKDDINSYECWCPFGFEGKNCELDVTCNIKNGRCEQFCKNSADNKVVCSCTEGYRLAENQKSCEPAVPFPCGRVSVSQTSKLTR
Chain of Coagulation factor IX (Homo sapiens) (P00740 227-461 limits assumed): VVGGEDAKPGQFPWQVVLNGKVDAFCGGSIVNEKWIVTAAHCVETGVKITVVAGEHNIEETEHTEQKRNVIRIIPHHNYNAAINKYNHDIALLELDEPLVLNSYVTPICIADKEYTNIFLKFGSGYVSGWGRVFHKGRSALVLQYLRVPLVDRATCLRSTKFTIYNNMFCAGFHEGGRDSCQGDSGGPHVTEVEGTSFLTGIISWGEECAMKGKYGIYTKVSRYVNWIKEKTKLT
Chain of Tissue-type plasminogen activator (Homo sapiens) (P00750 36-562 limits assumed): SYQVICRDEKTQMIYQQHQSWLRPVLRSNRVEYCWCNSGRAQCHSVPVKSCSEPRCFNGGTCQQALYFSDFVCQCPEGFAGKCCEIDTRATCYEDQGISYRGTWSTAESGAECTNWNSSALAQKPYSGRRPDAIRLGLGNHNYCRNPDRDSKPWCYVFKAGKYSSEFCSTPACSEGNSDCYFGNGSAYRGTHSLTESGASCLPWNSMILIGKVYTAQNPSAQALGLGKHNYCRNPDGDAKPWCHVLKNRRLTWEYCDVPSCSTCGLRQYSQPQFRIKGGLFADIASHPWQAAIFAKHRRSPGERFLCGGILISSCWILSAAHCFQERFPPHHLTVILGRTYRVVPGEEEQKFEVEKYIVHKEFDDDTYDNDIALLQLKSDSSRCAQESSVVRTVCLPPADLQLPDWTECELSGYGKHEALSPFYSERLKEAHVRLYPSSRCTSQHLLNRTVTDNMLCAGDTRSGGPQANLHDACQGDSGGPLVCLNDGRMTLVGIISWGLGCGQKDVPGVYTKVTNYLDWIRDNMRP
Chain of Plasminogen (Homo sapiens) (P00747 97-580 limits assumed): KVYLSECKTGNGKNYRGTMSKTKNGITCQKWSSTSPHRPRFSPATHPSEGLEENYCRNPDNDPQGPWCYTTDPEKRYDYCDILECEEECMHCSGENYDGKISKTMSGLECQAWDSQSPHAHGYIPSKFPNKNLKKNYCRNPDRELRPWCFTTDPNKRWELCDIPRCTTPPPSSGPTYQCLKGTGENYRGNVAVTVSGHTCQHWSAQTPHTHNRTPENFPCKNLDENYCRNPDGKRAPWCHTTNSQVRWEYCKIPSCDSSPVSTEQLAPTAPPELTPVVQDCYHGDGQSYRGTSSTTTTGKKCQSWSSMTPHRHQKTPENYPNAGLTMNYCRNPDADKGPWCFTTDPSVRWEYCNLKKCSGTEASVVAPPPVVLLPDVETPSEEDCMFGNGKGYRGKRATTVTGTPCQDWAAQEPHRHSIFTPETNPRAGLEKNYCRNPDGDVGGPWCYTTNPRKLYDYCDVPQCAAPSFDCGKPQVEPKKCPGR
Chain of Plasminogen (Homo sapiens) (P00747 581-810 limits assumed): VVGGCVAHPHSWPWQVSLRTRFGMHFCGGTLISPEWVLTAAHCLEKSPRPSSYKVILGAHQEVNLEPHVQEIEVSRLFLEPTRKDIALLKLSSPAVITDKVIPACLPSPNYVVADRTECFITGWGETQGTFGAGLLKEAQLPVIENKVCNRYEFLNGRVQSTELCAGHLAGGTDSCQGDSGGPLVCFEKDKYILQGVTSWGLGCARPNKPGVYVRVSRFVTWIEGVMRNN
Chain of Vitamin K-dependent protein C (Homo sapiens) (P04070 43-197 limits assumed): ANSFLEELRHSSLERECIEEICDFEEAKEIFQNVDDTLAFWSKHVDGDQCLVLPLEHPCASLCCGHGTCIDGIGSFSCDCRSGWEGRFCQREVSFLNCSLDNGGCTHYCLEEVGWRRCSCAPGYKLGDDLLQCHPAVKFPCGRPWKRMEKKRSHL
Chain of Vitamin K-dependent protein C (Homo sapiens) (P04070 212-461 limits assumed): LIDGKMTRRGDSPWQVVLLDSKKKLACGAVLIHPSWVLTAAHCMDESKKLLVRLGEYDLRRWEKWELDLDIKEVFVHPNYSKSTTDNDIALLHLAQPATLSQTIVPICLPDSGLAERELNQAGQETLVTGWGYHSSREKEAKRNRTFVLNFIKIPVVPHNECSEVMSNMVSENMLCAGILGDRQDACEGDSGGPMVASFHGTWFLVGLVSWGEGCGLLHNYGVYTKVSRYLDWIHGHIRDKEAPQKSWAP
Chain of Plasma kallikrein (Homo sapiens) (P03952 20-390 limits assumed): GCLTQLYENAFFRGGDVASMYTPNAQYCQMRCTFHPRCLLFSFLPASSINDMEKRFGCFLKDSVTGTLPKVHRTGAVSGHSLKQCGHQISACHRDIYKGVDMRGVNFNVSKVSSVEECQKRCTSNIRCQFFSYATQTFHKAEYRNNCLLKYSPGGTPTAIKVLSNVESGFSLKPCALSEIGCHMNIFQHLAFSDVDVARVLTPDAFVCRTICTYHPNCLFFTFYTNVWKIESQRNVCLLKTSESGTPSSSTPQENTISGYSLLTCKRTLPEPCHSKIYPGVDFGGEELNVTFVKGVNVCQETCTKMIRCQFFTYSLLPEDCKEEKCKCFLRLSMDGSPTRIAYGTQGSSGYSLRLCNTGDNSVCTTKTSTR
Chain of Plasma kallikrein (Homo sapiens) (P03952 391-638 limits assumed): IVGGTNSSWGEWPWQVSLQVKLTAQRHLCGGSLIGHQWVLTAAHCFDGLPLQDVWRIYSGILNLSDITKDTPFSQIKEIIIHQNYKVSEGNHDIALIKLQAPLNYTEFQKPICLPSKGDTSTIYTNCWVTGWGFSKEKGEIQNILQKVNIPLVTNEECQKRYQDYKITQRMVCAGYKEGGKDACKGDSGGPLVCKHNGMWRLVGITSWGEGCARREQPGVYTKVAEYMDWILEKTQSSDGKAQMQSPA
Chain of Coagulation factor X (P00742 41-179 limits assumed): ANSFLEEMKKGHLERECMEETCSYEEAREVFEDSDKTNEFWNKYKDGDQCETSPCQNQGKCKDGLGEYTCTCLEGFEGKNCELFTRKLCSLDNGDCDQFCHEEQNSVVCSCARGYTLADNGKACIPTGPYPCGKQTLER
Chain of Coagulation factor X (P00742 235-488 limits assumed): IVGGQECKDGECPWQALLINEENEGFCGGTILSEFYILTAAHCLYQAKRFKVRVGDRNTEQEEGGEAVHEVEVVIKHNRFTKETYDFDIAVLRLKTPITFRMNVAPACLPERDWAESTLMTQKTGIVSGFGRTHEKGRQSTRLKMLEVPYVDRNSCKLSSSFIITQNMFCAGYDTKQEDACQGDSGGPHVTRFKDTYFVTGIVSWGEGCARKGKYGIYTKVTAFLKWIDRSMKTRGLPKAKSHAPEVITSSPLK

Take `COc1ccc(-n2nc(C(F)(F)F)c3c2C(=O)N(c2ccc(C4(CN5CC[C@@H](O)C5)CC4)cc2)CC3)cc1`: the pKi on Coagulation factor X is 10.42. Besides, the result (on Trypsin (Homo sapiens); in test [1]; in test [2]; in test [3]; in the test listed under Homo sapiens; in test [4]) was inactive. In addition, the result in test [5] and in test [6] was inactive.
On Coagulation factor X, `COc1ccc(-n2nc(C(F)(F)F)c3c2C(=O)N(c2ccc(C4(CN(C)S(C)(=O)=O)CC4)cc2)CC3)cc1` showed a pKi of 10.13. Also, the result (at Trypsin (Homo sapiens); in test [1]; in [2]; in [3]; in the test listed under Homo sapiens; in test [4]) was inactive. For the same compound, the outcome in test [5] and in test [6] was inactive.
`COc1ccc(-n2nc(C(F)(F)F)c3c2C(=O)N(c2ccc(C4(CN(C)C(C)=O)CC4)cc2)CC3)cc1` gave a pKi at Coagulation factor X of 10.26. The result (on Trypsin (Homo sapiens); in test [1]; in [2]; in [3]; in the test listed under Homo sapiens; in test [4]) was inactive. The result in test [5] and in [6] was inactive.
With `CNCC1(c2ccc(N3CCc4c(C(F)(F)F)nn(-c5ccc(OC)cc5)c4C3=O)cc2)CC1`, the result (at Trypsin (Homo sapiens); in test [1]; in [2]; in [3]; in the test listed under Homo sapiens; in [4]) was inactive. The outcome in test [5] and in [6] was inactive.
Consider `COc1ccc(-n2nc(C(F)(F)F)c3c2C(=O)N(c2ccc(C4(CN5CCOCC5)CC4)cc2)CC3)cc1`, for which the result (at Trypsin (Homo sapiens); in test [1]; in [2]; in [3]; in the test listed under Homo sapiens; in test [4]) was inactive. The outcome in [5] and in [6] was inactive.
Turning to `COC(=O)C1(c2ccc(N3CCc4c(C(F)(F)F)nn(-c5ccc(OC)cc5)c4C3=O)cc2)CC1`, the result (at Trypsin (Homo sapiens); in test [1]; in [2]; in [3]; in the test listed under Homo sapiens; in test [4]) was inactive. Also, the outcome in test [5] and in test [6] was inactive.
Regarding `COc1ccc(-n2nc(C(F)(F)F)c3c2C(=O)N(c2ccc(-c4ccccc4CNC(C)C)cc2)CC3)cc1`, the pKi on Coagulation factor X is 8.85.
With `CNCc1ccccc1-c1ccc(N2CCc3c(C(N)=O)nn(-c4ccc(OC)cc4)c3C2=O)cc1`, the pKi on Coagulation factor X is 9.82. Against the preceding compound, the pKi is 0.97 log units higher.
The compound `CNCc1ccccc1-c1ccc(N2CCc3c(C(F)(F)F)nn(-c4ccc(OC)cc4)c3C2=O)cc1` gave a pKi at Coagulation factor X of 9.55.
With `COc1ccc(-n2nc(C(F)(F)F)c3c2C(=O)N(c2ccc(C4(Cn5ccnc5C)CC4)cc2)CC3)cc1`, the result (on Trypsin (Homo sapiens); in test [1]; in [2]; in test [3]; in the test filed under Homo sapiens; in [4]) was inactive. Also, the outcome in test [5] and in [6] was inactive.
On Coagulation factor X, `COc1ccc(-n2nc(C(F)(F)F)c3c2C(=O)N(c2ccc(-c4ccccc4CN(C)C)cc2)CC3)cc1` showed a pKi of 9.52.
